In this experiment the target is T1, APOL1 (Homo sapiens, UniProt O14791).
T1 sequence (O14791 1-398 S342G/I384M): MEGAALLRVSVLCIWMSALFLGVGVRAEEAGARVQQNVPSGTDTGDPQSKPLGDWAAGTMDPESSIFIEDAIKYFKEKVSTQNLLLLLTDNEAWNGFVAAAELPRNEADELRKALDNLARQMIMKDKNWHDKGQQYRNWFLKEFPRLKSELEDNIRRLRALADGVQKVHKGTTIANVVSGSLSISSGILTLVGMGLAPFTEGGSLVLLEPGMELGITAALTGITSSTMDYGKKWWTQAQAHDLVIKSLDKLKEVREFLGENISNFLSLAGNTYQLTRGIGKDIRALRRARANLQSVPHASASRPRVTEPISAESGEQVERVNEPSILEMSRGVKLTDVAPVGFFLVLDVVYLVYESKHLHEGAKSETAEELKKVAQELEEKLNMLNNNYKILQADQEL
The experiment in a line: MultiTox-Fluor Multiplex Cytotoxicity Assay in tet-inducible APOL1 T-REx-HEK293 cells (cell rescue, ratio of dead to live cells). Format: cell-based. Conditions: tet-inducible transgenic APOL1 T-REx-HEK293 cell lines, 50 ng/mL tet, 24 hours; read-out: IP50 (i.e., IC50 for cell proliferation). In outline:
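T-REx-HEK293 cells with tet-inducible APOL1 were treated with compound (10 μM top, 10-point 3-fold dilution, duplicate) plus 50 ng/mL tetracycline for 24 h at 37° C, in DMEM with 2% tet-free FBS. MultiTox-Fluor protease signals gave a dead/live ratio, normalized to no tet (100% viability) and tet alone (0%).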
Consider `CCc1cc2c(s1)CCOC21CCN(Cc2cn(CC(C)(C)S(C)(=O)=O)nn2)CC1` [Compound 1081], for which the IC50 is 100 to 500 nM.
The same measure for `CCc1cc2c(s1)CCOC21CCN(Cc2cn(CC3(O)CCCC3)nn2)CC1` [Compound 1082]: 100 to 500 nM; for `CCc1cc2c(s1)CCOC21CCN(Cc2cn(CCS(=O)(=O)NC)nn2)CC1` [Compound 1083]: 500 to 1000 nM.
The result for `CCc1cc2c(s1)CCOC21CCN(Cc2cn(CC(O)CC)nn2)CC1` (centres unmarked) [Compound 1084] reads 500 to 1000 nM; that for `CCc1cc2c(s1)CCOC21CCN(Cc2cn(CCS(C)(=O)=O)nn2)CC1` [Compound 1085], 500 to 1000 nM.
The result for `CCc1cc2c(s1)CCOC21CCN(Cc2cn(CCS(=O)(=O)C3CC3)nn2)CC1` [Compound 1086] reads 500 to 1000 nM; that for `CCc1nnc(Cn2cc(CN3CCC4(CC3)OCCc3sc(CC)cc34)nn2)o1` [Compound 1087], 500 to 1000 nM; that for `CCc1cc2c(s1)CCOC21CCN(Cc2cn(CC(C)S(C)(=O)=O)nn2)CC1` (centres unmarked) [Compound 1088], 500 to 1000 nM.
For the compound `CCc1cc2c(s1)CCOC21CCN(Cc2cn(CCS(=O)(=O)CC)nn2)CC1` [Compound 1089], the IC50 is 500 to 1000 nM.
The same measure for `CCc1cc2c(s1)CCOC21CCN(Cc2cn(CCS(=O)(=O)CC3CC3)nn2)CC1` [Compound 1090]: 500 to 1000 nM; for `CCc1cc2c(s1)CCOC21CCN(Cc2cn(CCS(=O)(=O)C3CCOCC3)nn2)CC1` [Compound 1091]: 500 to 1000 nM.
The result for `CCc1cc2c(s1)CCOC21CCN(Cc2cn(CC(=O)NCC(C)O)nn2)CC1` (centres unmarked) [Compound 1092] reads 500 to 1000 nM.
The same measure for `CCc1cc2c(s1)CCOC21CCN(Cc2cn(CCc3csc(N)n3)nn2)CC1` [Compound 1093]: 500 to 1000 nM.
Regarding `CCc1cc2c(s1)CCOC21CCN(Cc2cn(C3CC(O)C3(C)C)nn2)CC1` (centres unmarked) [Compound 1094], the IC50 was 500 to 1000 nM.
The result for `CCc1cc2c(s1)CCOC21CCN(Cc2cn(CC(=O)NCCO)nn2)CC1` [Compound 1095] reads 500 to 1000 nM.
The result for `CCc1cc2c(s1)CCOC21CCN(Cc2cn(CC(=O)NCCC(F)(F)F)nn2)CC1` [Compound 1096] reads 500 to 1000 nM; that for `CCc1cc2c(s1)CCOC21CCN(Cc2cn(CC(O)c3cnn(C)c3)nn2)CC1` (centres unmarked) [Compound 1097], 500 to 1000 nM.
In the case of `CCc1cc2c(s1)CCOC21CCN(Cc2cn([C@H]3CC[C@@H]3O)nn2)CC1` [Compound 1098], the IC50 lay in the range of 500 to 1000 nM.
The result for `CCc1cc2c(s1)CCOC21CCN(Cc2cn(CCCF)nn2)CC1` [Compound 1099] reads 500 to 1000 nM; that for `CCc1cc2c(s1)CCOC21CCN(Cc2cn(CCC(=O)NCCC(F)(F)F)nn2)CC1` [Compound 1100], 500 to 1000 nM.
The result for `CCc1cc2c(s1)CCOC21CCN(Cc2cn(C(C)c3nnc(C)o3)nn2)CC1` (centres unmarked) [Compound 1101] reads 500 to 1000 nM; that for `CCc1cc2c(s1)CCOC21CCN(Cc2cn(CCC(=O)NCC(C)O)nn2)CC1` (centres unmarked) [Compound 1102], 500 to 1000 nM; that for `CCc1cc2c(s1)CCOC21CCN(Cc2cn(CC(O)c3cccnc3)nn2)CC1` (centres unmarked) [Compound 1103], 500 to 1000 nM.
The result for `CCc1cc2c(s1)CCOC21CCN(Cc2cn(CCN3CCC(O)C3)nn2)CC1` (centres unmarked) [Compound 1104] reads 500 to 1000 nM.
`CCc1cc2c(s1)CCOC21CCN(Cc2cn(C3CC(F)(F)C3)nn2)CC1` [Compound 1105]: the IC50 was 500 to 1000 nM.
The same measure for `CCc1cc2c(s1)CCOC21CCN(Cc2cn(Cc3cc(C(N)=O)co3)nn2)CC1` [Compound 1106]: 500 to 1000 nM; for `CCc1cc2c(s1)CCOC21CCN(Cc2cn(CC(=O)NC)nn2)CC1` [Compound 1107]: 500 to 1000 nM.
The same measure for `CCc1cc2c(s1)CCOC21CCN(Cc2cn(Cc3cc(COC)[nH]n3)nn2)CC1` [Compound 1108]: 500 to 1000 nM; for `CCc1cc2c(s1)CCOC21CCN(Cc2cn(CCc3noc(C)n3)nn2)CC1` [Compound 1109]: 500 to 1000 nM; for `CCc1cc2c(s1)CCOC21CCN(Cc2cn(C[C@H]3CC[C@@H](CO)O3)nn2)CC1` [Compound 1110]: 500 to 1000 nM.
The same measure for `CCc1cc2c(s1)CCOC21CCN(Cc2cn(CCC(=O)NCCO)nn2)CC1` [Compound 1111]: 500 to 1000 nM; for `CCc1cc2c(s1)CCOC21CCN(Cc2cn(C3CC3)nn2)CC1` [Compound 1112]: 500 to 1000 nM.
Turning to `CCc1cc2c(s1)CCOC21CCN(Cc2cn(CC3CCOCC3)nn2)CC1` [Compound 1113], the IC50 lay in the range of 500 to 1000 nM.
With `CCc1cc2c(s1)CCOC21CCN(Cc2cn(CCC(N)=O)nn2)CC1` [Compound 1114], the IC50 fell in the range of 500 to 1000 nM.
The same measure for `CCc1cc2c(s1)CCOC21CCN(Cc2cn(CCCN3CC(O)C3)nn2)CC1` [Compound 1115]: 500 to 1000 nM; for `CCc1cc2c(s1)CCOC21CCN(Cc2cn(C3CCN(C(C)=O)CC3)nn2)CC1` [Compound 1116]: 500 to 1000 nM; for `CCc1cc2c(s1)CCOC21CCN(Cc2cn(C(C)C(=O)NCCO)nn2)CC1` (centres unmarked) [Compound 1117]: 500 to 1000 nM.
The result for `CCc1cc2c(s1)CCOC21CCN(Cc2cn(CC3CNC(=O)O3)nn2)CC1` (centres unmarked) [Compound 1118] reads 500 to 1000 nM; that for `CCc1cc2c(s1)CCOC21CCN(Cc2cn(C(C)C(=O)NCC(C)O)nn2)CC1` (centres unmarked) [Compound 1119], 500 to 1000 nM; that for `CCc1cc2c(s1)CCOC21CCN(Cc2cn(CCC(=O)NC)nn2)CC1` [Compound 1120], 500 to 1000 nM.
On to `CCc1cc2c(s1)CCOC21CCN(Cc2cn(C(C)C(=O)NCCC(F)(F)F)nn2)CC1` (centres unmarked) [Compound 1121], for which the IC50 was in the range of 500 to 1000 nM.
For the compound `CCc1cc2c(s1)CCOC21CCN(Cc2cn(CC(=O)NC3COC3)nn2)CC1` [Compound 1122], the IC50 fell in the range of 500 to 1000 nM.
The result for `CCc1cc2c(s1)CCOC21CCN(Cc2cn(C3CCC3(F)F)nn2)CC1` (centres unmarked) [Compound 1123] reads 500 to 1000 nM; that for `CCc1cc2c(s1)CCOC21CCN(Cc2cn(Cc3ccc(=O)[nH]c3)nn2)CC1` [Compound 1124], 500 to 1000 nM.
The same measure for `CCc1cc2c(s1)CCOC21CCN(Cc2cn(Cc3ccc[nH]c3=O)nn2)CC1` [Compound 1125]: 500 to 1000 nM; for `CCc1cc2c(s1)CCOC21CCN(Cc2cc3nc(OC)ccc3[nH]2)CC1` [Compound 1126, 2′-ethyl-1-((5-methoxy-1H-pyrrolo[3,2-b]pyridin-2-yl)methyl)-6′,7′-dihydrospiro[piperidine-4,4′-thieno[3,2-c]pyran]]: under 100 nM; for `CCc1cc2c(s1)CCOC21CCN(Cc2cnn(CCS(=O)(=O)NC)c2)CC1` [Compound 1127]: under 100 nM.
The result for `CCc1cc2c(s1)CCOC21CCN(Cc2ccc3[nH]ncc3c2)CC1` [Compound 1128] reads under 100 nM; that for `CCc1cc2c(s1)CCOC21CCN(Cc2ccc(NS(C)(=O)=O)cc2)CC1` [Compound 1129], 100 to 500 nM.
Turning to `CCc1cc2c(s1)CCOC21CCN(Cc2cnn(CCS(C)(=O)=O)c2)CC1` [Compound 1130], the IC50 lay in the range of 100 to 500 nM.
The result for `CCc1cc2c(s1)CCOC21CCN(Cc2cnn(CCS(=O)(=O)N(C)C)c2)CC1` [Compound 1131] reads 100 to 500 nM; that for `CCc1cc2c(s1)CCOC21CCN(Cc2cnc(NC(=O)COCCOC)s2)CC1` [Compound 1132], 100 to 500 nM; that for `CCc1cc2c(s1)CCOC21CCN(Cc2cn[nH]c2)CC1` [Compound 1133], 100 to 500 nM.
The result for `CCc1cc2c(s1)CCOC21CCN(Cc2cnc(N)s2)CC1` [Compound 1134] reads 100 to 500 nM.
Take `CCc1cc2c(s1)CCOC21CCN(Cc2cnn(C(C)=O)c2)CC1` [Compound 1135]: the IC50 lay in the range of 100 to 500 nM.
As to `CCc1cc2c(s1)CCOC21CCN(Cc2cnc(-c3cccnc3)s2)CC1` [Compound 1136], the IC50 is 100 to 500 nM.
The result for `CCc1cc2c(s1)CCOC21CCN(Cc2cnc(N3CCCCC3)s2)CC1` [Compound 1137] reads 100 to 500 nM; that for `CCc1cc2c(s1)CCOC21CCN(Cc2cnn(C)c2)CC1` [Compound 1138], 100 to 500 nM.
The same measure for `CCc1cc2c(s1)CCOC21CCN(Cc2csc(-c3cccnc3)n2)CC1` [Compound 1139]: 500 to 1000 nM; for `CCc1cc2c(s1)CCOC21CCN(Cc2cnc(-c3ccccn3)s2)CC1` [Compound 1140]: 500 to 1000 nM.
For `CCc1cc2c(s1)CCOC21CCN(Cc2c[nH]cn2)CC1` [Compound 1141], the IC50 lay within 500 to 1000 nM.
The result for `CCc1cc2c(s1)CCOC21CCN(Cc2cncs2)CC1` [Compound 1142] reads 500 to 1000 nM; that for `CCc1cc2c(s1)CCOC21CCN(Cc2cnc(C(C)O)s2)CC1` (centres unmarked) [Compound 1143], 500 to 1000 nM; that for `CCc1cc2c(s1)CCOC21CCN(Cc2cnc(C(F)(F)F)[nH]2)CC1` [Compound 1144], 500 to 1000 nM.
Regarding `CCc1cc2c(s1)CCOC21CCN(Cc2nc(-c3ccccc3)[nH]c2Cl)CC1` [Compound 1145], the IC50 lay within 500 to 1000 nM.
Regarding `CCc1cc2c(s1)CCOC21CCN(Cc2csc(N3CCOCC3)n2)CC1` [Compound 1146], the IC50 lay in the range of 500 to 1000 nM.
The result for `CCc1cc2c(s1)CCOC21CCN(Cc2csc(C(F)(F)F)n2)CC1` [Compound 1147] reads 500 to 1000 nM.
The same measure for `CCc1cc2c(s1)CCOC21CCN(Cc2ccc(S(C)(=O)=O)cc2)CC1` [Compound 1148]: 500 to 1000 nM.

These data come from patent US20250171459A1, “2-METHYL-4',5'-DIHYDROSPIRO[PIPERIDINE-4,7'-THIENO[2,3-C]PYRAN] DERIVATIVES AS INHIBITORS OF APOL1 AND METHODS OF USING SAME” (Vertex Pharmaceuticals Incorporated, priority 2022, published 2025).
